Source: patent publication US8604053B2, “TRPV1 antagonists” (AbbVie Inc., priority 2008, dated 2013)
pIC50: −log10 of the molar value.

Key:
[1] = target: T1, human TRPV1 receptor (hTRPV1) (Homo sapiens, UniProt Q8NER1); experiment: Capsaicin activation assay (Ca2+ influx, FLIPR); type: cell-based; details: hTRPV1 in 1321N1 cells, 0.05 μM capsaicin
T1 construct: expressed in transfected cells
Protocol: Dulbecco's modified Eagle medium (D-MEM) (with 4.5 mg/mL glucose) and fetal bovine serum were obtained from Hyclone Laboratories, Inc. (Logan, Utah). Dulbecco's phosphate-buffered saline (D-PBS) (with 1 mg/mL glucose and 3.6 mg/l Na pyruvate, without phenol red), L-glutamine, hygromycin B, and Lipofectamine® were obtained from Life Technologies (Grand Island, N.Y.). G418 sulfate was obtained from Calbiochem-Novabiochem Corp. (San Diego, Calif.). Capsaicin (8-methyl-N-vanillyl-6-nonenamide) was obtained from Sigma-Aldrich, Co. (St. Louis, Mo.). Fluo-4 AM (N-[4-[6-[(acetyloxy)methoxy]-2,7-difluoro-3-oxo-3H-xanthen-9-yl]-2-[2-[2-[bis[2-[(acetyloxy)methoxy]-2-oxyethyl]amino]-5-methyl-phenoxy[ethoxy]phenyl]-N-[2-[(acetyloxy)methoxy]-2-oxyethyl]-glycine, (acetyloxy)methyl ester) was purchased from Molecular Probes (Eugene, Oreg.).
The cDNAs for the human TRPV1 receptor (hTRPV1) were isolated by reverse transcriptase-polymerase chain reaction (RT-PCR) from human small intestine poly A+ RNA supplied by Clontech (Palo Alto, Calif.) using primers designed surrounding the initiation and termination codons identical to the published sequences (Hayes et al. Pain 2000, 88, 205-215). The resulting cDNA PCR products were subcloned into pClneo mammalian expression vector (Promega) and fully sequenced using fluorescent dye-terminator reagents (Prism, Perkin-Elmer Applied Biosystems Division) and a Perkin-Elmer Applied Biosystems Model 373 DNA sequencer or Model 310 genetic analyzer. Expression plasmids encoding the hTRPV1 cDNA were transfected individually into 1321N1 human astrocytoma cells using Lipofectamine®. Forty-eight hours after transfection, the neomycin-resistant cells were selected with growth medium containing 800 μg/mL Geneticin (Gibco BRL). Surviving individual colonies were isolated and screened for TRPV1 receptor activity. Cells expressing recombinant homomeric TRPV1 receptors were maintained at 37° C. in D-MEM containing 4 mM L-glutamine, 300 μg/mL G418 (Cal-biochem) and 10% fetal bovine serum under a humidified 5% CO2 atmosphere.
The functional activity of compounds at the TRPV1 receptor was determined with a Ca^2+ influx assay and measurement of intracellular Ca^2+ levels ([Ca^2+]i). All compounds were tested over an 11-point half-log concentration range. Compound solutions were prepared in D-PBS (4× final concentration), and diluted serially across 96-well v-bottom tissue culture plates using a Biomek 2000 robotic automation workstation (Beckman-Coulter, Inc., Fullerton, Calif.). A 0.2 μM solution of the TRPV1 agonist capsaicin was also prepared in D-PBS. The fluorescent Ca^2+ chelating dye Fluo-4 AM was used as an indicator of the relative levels of [Ca^2+]i in a 96-well format using a Fluorescence Imaging Plate Reader (FLIPR)(Molecular Devices, Sunnyvale, Calif.). Cells were grown to confluency in 96-well black-walled tissue culture plates. Then, prior to the assay, the cells were loaded with 100 μL per well of Fluo-4 AM (2 μM, in D-PBS) for 1-2 hours at 23° C. Washing of the cells was performed to remove extracellular Fluo-4 AM (2×1 mL D-PBS per well), and afterward, the cells were placed in the reading chamber of the FLIPR instrument. 50 μL of the compound solutions were added to the cells at the 10 second time mark of the experimental run. Then, after a 3-minute time delay, 50 μL of the capsaicin solution was added at the, 190 second time mark (0.05 μM final concentration)(final volume=200 μL) to challenge the TRPV1 receptor. Time length of the experimental run was 240 seconds. Fluorescence readings were made at 1 to 5 second intervals over the course of the experimental run. The peak increase in relative fluorescence units (minus baseline) was calculated from the 190 second time mark to the end of the experimental run, and expressed as a percentage of the 0.05 μM capsaicin (control) response. […]

[2] = Rat telemetry protocol, core body temperature; type: in vivo; details: core body temperature of rats one hour post dosing, 100 μmol/kg p.o., relative to vehicle
Protocol: Male, Sprague Dawley rats, 225-250 grams were anesthetized with Sevoflurane (Abbott Laboratories). Rats were placed on a heating pad and covered with a sterile surgical drape. A ventral midline abdominal incision was made and sterile cotton tip applicators were used to gently move internal tissue and expose the abdominal aorta for implantation of the telemetry catheter (Data Sciences International; TL11M2-050-PXT). Blood flow was temporarily stopped to the lower extremities (5-7 min) with Diffenbach clamps to allow the insertion of the telemetry catheter into the abdominal aorta. Once inserted, a sterile cellulose patch was placed over the catheter/aorta and secured using a small amount of tissue adhesive (Vetbond, 3M). Once catheter placement was complete, the clamps were removed and blood flow was restored to the lower extremities. Thetransmitter was placed in the intraperitoneal cavity. The transmitter suture rib was sewn into the abdominal sutures to secure it in place. The skin was closed using sterile wound clips and the animal removed from Sevoflurane. Buprenex ([…] s.c.; Phoenix) was administered for post-operative analgesia. Animals were maintained on a heating pad until ambulatory, and then individually housed with food and water ad lib. Surgical staples were removed after 7-10 days post-implantation. Rats were allowed a 2-week post-surgical recovery period before treatment with test compound. Oral dosing (p.o.) was at time zero, with rats receiving a single dose of vehicle (10% EtOH, 20% Tween-80, 70% PEG-400) or a 100 μmol/kg dose of compound dissolved in vehicle. Temperature measurements were recorded every 15 minutes for the duration of the study (24 hours).
Representative compounds described herein have the novel property of having limited transient temperature effect on core body temperature of a mammal (e.g. rats). For example, compounds tested alter core body temperature of rats by less than about +0.5° C. at about 1 hour after administration of a single dose (100 μmol/kg) of the test compounds orally, for example, in the range from about −2.5° C. to less than about +0.5° C., from about −0.5° C. to less than about +0.5° C.; or from about −0.3° C. to about +0.3° C.
The term “core body temperature” as used herein, means the temperature measured in the intraperitoneal cavity.

CYP2C9 = target: T2, CYP2C9 (Homo sapiens, UniProt P11712); experiment: CYP2C9 inhibition assay; type: in vitro ADME; details: pH 7.4, probe Luciferin-H (100 μM final), human liver microsomes, substrate Luciferin-H, read-out: CYP2C9 % inh @ 2.2 μM
T2 construct: human liver microsomes (BD Gentest); tissue BD Gentest; host or cells: human liver microsomes
T2 sequence (P11712 whole entry): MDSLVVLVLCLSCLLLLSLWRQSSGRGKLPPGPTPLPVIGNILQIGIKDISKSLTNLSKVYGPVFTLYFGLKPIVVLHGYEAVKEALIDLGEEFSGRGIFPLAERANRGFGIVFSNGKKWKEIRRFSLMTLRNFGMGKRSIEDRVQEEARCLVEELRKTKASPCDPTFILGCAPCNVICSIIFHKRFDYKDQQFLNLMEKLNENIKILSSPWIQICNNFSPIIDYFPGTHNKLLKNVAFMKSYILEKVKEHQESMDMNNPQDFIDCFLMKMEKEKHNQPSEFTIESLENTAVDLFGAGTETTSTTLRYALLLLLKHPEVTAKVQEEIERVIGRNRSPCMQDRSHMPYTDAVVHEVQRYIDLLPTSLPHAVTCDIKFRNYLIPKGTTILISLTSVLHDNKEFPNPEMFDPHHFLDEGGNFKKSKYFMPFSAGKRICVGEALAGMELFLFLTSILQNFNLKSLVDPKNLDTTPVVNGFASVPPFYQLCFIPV
Protocol: Stock solutions of test compounds were assayed in 96-well format for their ability to inhibit CYP2C9, CYP2D6, or CYP3A4 mediated metabolism of test substrates. Luciferin-H was used as the substrate for CYP2C9; 3-[2-(N,N-diethyl-N-methylammonium)ethyl]-7-methoxy-4-methylcoumarin (AMMC) was used as the substrate for CYP2D6; 7-benzyloxyquiniline (BZQ) was used as the substrate for CYP3A4. For each subtype, positive controls (sulphaphenazole in the case of CYP2C9; quinidine in the case of CYP2D6, ketoconazole in the case of CYP3A4) were used to validate assay results run in duplicate.
Pre-Incubation Mixture Preparation for CYP2C9 and CYP2D6: A pre-incubation mixture was prepared by combining 100 mM phosphate buffer (9.12 mL; pH 7.4), human liver microsomes (BD Gentest, 240 itt; final concentration: 0.4 mg/mL), and 10 mM nicotinamide adenine dinucleotide phosphate in 65.4 mM MgCl2 hexahydrate (120 μL; final concentration: 125 μM and 818 μM, respectively). To this was mixture is added a ‘regeneration’ mixture (120 μL) of 333 mM glucose-6-phosphate and 40 U/mL glucose-6-phosphate dehydrogenase in 5 mM sodium citrate (final concentration: 4 mM, 0.5 U/mL, and 0.06 mM, respectively).
Substrate Mixture Preparation for CYP2C9: To a solution of 25 mM phosphate buffer, (2.16 mL, pH 7.4) was added 5 mM Luciferin-H (Promega P450 Glo Assay V8792, 240 μL; final solution concentration 0.5 mM, final assay concentration 100 μM).
CYP2C9 Inhibiton Assay: To each well in the assay plate containing varying concentrations of test compound or control compound in DMSO (10 μL) Pre-Incubation Mixture (40 itt) was added to the wells and the assay plate was pre-incubated for 10 minutes at 37° C., with shaking or rocking. CYP2C9 Substrate Mixture (10 μL) was added to all wells and the assay plate was incubated for an additional 25 minutes at 37° C., with shaking or rocking. Final DMSO concentration was 1%. Luciferin-H detection reagent (Promega kit V8792, 50 μL) was added to all wells. The plate was then vortexed at ambient temperature for between 20 minutes and 2 hours, and the luminescence of each well was then read and recorded.

T1 sequence (Q8NER1 whole entry): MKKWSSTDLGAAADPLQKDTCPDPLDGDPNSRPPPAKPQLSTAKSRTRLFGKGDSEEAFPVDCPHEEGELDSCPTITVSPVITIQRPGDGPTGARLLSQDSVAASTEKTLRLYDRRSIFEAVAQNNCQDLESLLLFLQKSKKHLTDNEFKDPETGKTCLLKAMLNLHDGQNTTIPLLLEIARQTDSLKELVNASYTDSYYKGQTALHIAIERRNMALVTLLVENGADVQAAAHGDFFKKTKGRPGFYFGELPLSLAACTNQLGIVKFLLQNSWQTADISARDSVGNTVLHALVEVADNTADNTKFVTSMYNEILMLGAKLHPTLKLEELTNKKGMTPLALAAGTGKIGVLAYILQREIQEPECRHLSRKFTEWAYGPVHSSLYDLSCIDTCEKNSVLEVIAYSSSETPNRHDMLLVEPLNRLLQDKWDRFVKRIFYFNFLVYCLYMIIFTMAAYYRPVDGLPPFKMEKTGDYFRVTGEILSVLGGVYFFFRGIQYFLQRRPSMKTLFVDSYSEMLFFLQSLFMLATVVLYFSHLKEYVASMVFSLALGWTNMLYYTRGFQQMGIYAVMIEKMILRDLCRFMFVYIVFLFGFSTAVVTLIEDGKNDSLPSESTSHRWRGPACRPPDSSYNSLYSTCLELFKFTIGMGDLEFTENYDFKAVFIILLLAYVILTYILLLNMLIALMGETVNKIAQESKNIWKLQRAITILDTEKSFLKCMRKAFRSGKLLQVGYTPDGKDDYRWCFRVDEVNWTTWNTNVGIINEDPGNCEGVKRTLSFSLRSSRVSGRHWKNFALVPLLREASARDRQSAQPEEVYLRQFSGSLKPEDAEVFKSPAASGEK

| pIC50 [1] | inhibition at 25 min, 2.2 µM (CYP2C9) | Compound | Δ Temp (° C.) [2] |
| --- | --- | --- | --- |
| 7.72 |  | CCC1(CC)C[C@@H](NC(=O)Nc2cccc3[nH]ncc23)c2cc(F)ccc2O1 [Example 58, N-[(4R)-2,2-diethyl-6-fluoro-3,4-dihydro-2H-chromen-4-yl]-N′-1H-indazol-4-ylurea] | 0.3 °C |
| 7.11 |  | Cn1ncc2c(NC(=O)N[C@@H]3CC4(CCC4)Oc4ccc(F)cc43)cccc21 [Example 7, N-[(4R)-6-fluoro-3,3′,4,4′-tetrahydro-2′H-spiro[chromene-2,1′-cyclobutan]-4-yl]-N′-(1-methyl-1H-indazol-4-yl)urea] | 0.1 °C |
| 7.12 |  | O=C(Nc1cccc2[nH]ncc12)N[C@@H]1CC2(CCC2)Oc2ccc(F)cc21 [Example 8, N-[(4R)-6-fluoro-3,3′,4,4′-tetrahydro-2′H-spiro[chromene-2,1′-cyclobutan]-4-yl]-N′-1H-indazol-4-ylurea] | 0.1 °C |
| 7.55 |  | O=C(Nc1cccc2c1C[C@H](O)CC2)N[C@@H]1CC2(CCC2)Oc2ccc(F)cc21 [Example 6, N-[(4R)-6-fluoro-3,3′,4,4′-tetrahydro-2′H-spiro[chromene-2,1′-cyclobutan]-4-yl]-N′-[(7R)-7-hydroxy-5,6,7,8-tetrahydronaphthalen-1-yl]urea] | 0.2 °C |

Continued, molecule first:

| Compound | pIC50 [1] | inhibition at 25 min, 2.2 µM (CYP2C9) | Δ Temp (° C.) [2] |
| --- | --- | --- | --- |
| O=C(Nc1cccc2[nH]ncc12)N[C@@H]1CCOc2c(OC(F)(F)F)cccc21 [Example 70, N-1H-indazol-4-yl-N′-[(4R)-8-(trifluoromethoxy)-3,4-dihydro-2H-chromen-4-yl]urea] | 8.30 |  | 0.3 °C |
| CCC1(CC)C[C@@H](NC(=O)Nc2cccc3c2cnn3C)c2cccc(F)c2O1 [Example 50, N-[(4R)-2,2-diethyl-8-fluoro-3,4-dihydro-2H-chromen-4-yl]-N′-(1-methyl-1H-indazol-4-yl)urea] | 7.46 |  | 0.1 °C |
| CCCC1(CCC)C[C@@H](NC(=O)Nc2cccc3c2cnn3C)c2cccc(F)c2O1 [Example 67, N-[(4R)-8-fluoro-2,2-dipropyl-3,4-dihydro-2H-chromen-4-yl]-N′-(1-methyl-1H-indazol-4-yl)urea] | 7.74 |  | −0.2 °C |
| CC1(C)C[C@@H](NC(=O)Nc2cccc3[nH]ncc23)c2ccc(C(F)(F)F)cc2O1 [Example 41, N-[(4R)-2,2-dimethyl-7-(trifluoromethyl)-3,4-dihydro-2H-chromen-4-yl]-N′-1H-indazol-4-ylurea] | 7.80 |  | −2.5 °C |
| Cn1ncc2c(NC(=O)N[C@@H]3CC(CF)(CF)Oc4c(OC(F)(F)F)cccc43)cccc21 [Example 88, N-[(4R)-2,2-bis(fluoromethyl)-8-(trifluoromethoxy)-3,4-dihydro-2H-chromen-4-yl]-N′-(1-methyl-1H-indazol-4-yl)urea] | 8.05 |  | −0.3 °C |
| CC1(C)C[C@@H](NC(=O)Nc2cccc3cnc(N)cc23)c2ccc(F)cc2O1 [Example 106, N-(3-aminoisoquinolin-5-yl)-N′-[(4R)-7-fluoro-2,2-dimethyl-3,4-dihydro-2H-chromen-4-yl]urea] | 7.68 | 13% | 0.3 °C |
| CCC1(CC)C[C@@H](NC(=O)Nc2cccc3c(C)nccc23)c2cc(F)ccc2O1 [Example 86, N-[(4R)-2,2-diethyl-6-fluoro-3,4-dihydro-2H-chromen-4-yl]-N′-(1-methylisoquinolin-5-yl)urea] | 8.00 |  | −1.7 °C |
